Laboratory results from the NIST ThermoML archive (doi:10.1016/j.fluid.2015.03.016).
Where “and” joins values, the source holds several entries; their conditions need not be identical. Equal entries are not always repeated. Numbers after ± are expanded uncertainties.

Details: Liquid, Vibrating wire viscometry

CCCCOC(=O)CCCCC(=O)OCCCC [dibutyl hexanedioate]
Details | viscosity
343.15 K, 20270 kPa | 2.331 ± 0.042 mPa·s
343.15 K, 20280 kPa | 2.335 ± 0.042 mPa·s
343.15 K, 30090 kPa | 2.562 ± 0.043 mPa·s
343.15 K, 30130 kPa | 2.561 ± 0.043 mPa·s
343.15 K, 30140 kPa | 2.566 ± 0.043 mPa·s
343.15 K, 30150 kPa | 2.561 ± 0.043 mPa·s and 2.564 ± 0.043 mPa·s
343.15 K, 30160 kPa | 2.566 ± 0.043 mPa·s
343.15 K, 39830 kPa | 2.806 ± 0.047 mPa·s
343.15 K, 50080 kPa | 3.08 ± 0.051 mPa·s and 3.083 ± 0.051 mPa·s
343.15 K, 65610 kPa | 3.482 ± 0.058 mPa·s
343.15 K, 65620 kPa | 3.49 ± 0.058 mPa·s
358.15 K, 2510 kPa | 1.559 ± 0.026 mPa·s
358.15 K, 2520 kPa | 1.559 ± 0.026 mPa·s and 1.56 ± 0.026 mPa·s
358.15 K, 5050 kPa | 1.594 ± 0.037 mPa·s and 1.593 ± 0.037 mPa·s
358.15 K, 5060 kPa | 1.594 ± 0.038 mPa·s and 1.595 ± 0.038 mPa·s
358.15 K, 5240 kPa | 1.601 ± 0.036 mPa·s
358.15 K, 9930 kPa | 1.688 ± 0.029 mPa·s
358.15 K, 10010 kPa | 1.69 ± 0.029 mPa·s
358.15 K, 15060 kPa | 1.769 ± 0.03 mPa·s and 1.766 ± 0.03 mPa·s and 1.764 ± 0.03 mPa·s
358.15 K, 15100 kPa | 1.768 ± 0.03 mPa·s
358.15 K, 15130 kPa | 1.765 ± 0.03 mPa·s
358.15 K, 20130 kPa | 1.863 ± 0.031 mPa·s
358.15 K, 30280 kPa | 2.045 ± 0.034 mPa·s
358.15 K, 30290 kPa | 2.042 ± 0.034 mPa·s and 2.044 ± 0.034 mPa·s
358.15 K, 30300 kPa | 2.041 ± 0.034 mPa·s
358.15 K, 30310 kPa | 2.043 ± 0.034 mPa·s
358.15 K, 30320 kPa | 2.046 ± 0.034 mPa·s
358.15 K, 39960 kPa | 2.223 ± 0.037 mPa·s
358.15 K, 39990 kPa | 2.219 ± 0.037 mPa·s
358.15 K, 40010 kPa | 2.219 ± 0.037 mPa·s
358.15 K, 40040 kPa | 2.222 ± 0.037 mPa·s
358.15 K, 40060 kPa | 2.219 ± 0.037 mPa·s
358.16 K, 1080 kPa | 1.521 ± 0.026 mPa·s
358.16 K, 1090 kPa | 1.524 ± 0.026 mPa·s and 1.523 ± 0.026 mPa·s and 1.521 ± 0.026 mPa·s
358.16 K, 2510 kPa | 1.559 ± 0.026 mPa·s
358.16 K, 2540 kPa | 1.558 ± 0.026 mPa·s
358.16 K, 5180 kPa | 1.6 ± 0.027 mPa·s
358.16 K, 5200 kPa | 1.597 ± 0.027 mPa·s
358.16 K, 5240 kPa | 1.599 ± 0.037 mPa·s
358.16 K, 7560 kPa | 1.645 ± 0.028 mPa·s and 1.644 ± 0.028 mPa·s and 1.643 ± 0.028 mPa·s
358.16 K, 20120 kPa | 1.868 ± 0.031 mPa·s and 1.866 ± 0.031 mPa·s
358.16 K, 20130 kPa | 1.868 ± 0.031 mPa·s
358.16 K, 20160 kPa | 1.863 ± 0.031 mPa·s
358.16 K, 40080 kPa | 2.223 ± 0.037 mPa·s
358.16 K, 50160 kPa | 2.426 ± 0.041 mPa·s and 2.429 ± 0.041 mPa·s
358.16 K, 50170 kPa | 2.424 ± 0.04 mPa·s and 2.427 ± 0.041 mPa·s
358.16 K, 65550 kPa | 2.761 ± 0.046 mPa·s and 2.757 ± 0.046 mPa·s and 2.758 ± 0.046 mPa·s
373.14 K, 2490 kPa | 1.265 ± 0.022 mPa·s
373.14 K, 10000 kPa | 1.376 ± 0.024 mPa·s and 1.374 ± 0.023 mPa·s
373.14 K, 15040 kPa | 1.442 ± 0.025 mPa·s
373.14 K, 15050 kPa | 1.443 ± 0.025 mPa·s
373.14 K, 29940 kPa | 1.668 ± 0.028 mPa·s
373.15 K, 1060 kPa | 1.253 ± 0.021 mPa·s
373.15 K, 1120 kPa | 1.255 ± 0.021 mPa·s
373.15 K, 1160 kPa | 1.254 ± 0.021 mPa·s
373.15 K, 2590 kPa | 1.264 ± 0.022 mPa·s
373.15 K, 2600 kPa | 1.264 ± 0.022 mPa·s
373.15 K, 5080 kPa | 1.302 ± 0.022 mPa·s and 1.301 ± 0.022 mPa·s and 1.303 ± 0.022 mPa·s
373.15 K, 7600 kPa | 1.342 ± 0.023 mPa·s and 1.341 ± 0.023 mPa·s
373.15 K, 7610 kPa | 1.341 ± 0.023 mPa·s
373.15 K, 10090 kPa | 1.375 ± 0.024 mPa·s
373.15 K, 10130 kPa | 1.374 ± 0.023 mPa·s
373.15 K, 15060 kPa | 1.441 ± 0.025 mPa·s
373.15 K, 15070 kPa | 1.443 ± 0.025 mPa·s
373.15 K, 20220 kPa | 1.518 ± 0.026 mPa·s
373.15 K, 20230 kPa | 1.518 ± 0.026 mPa·s
373.15 K, 20250 kPa | 1.516 ± 0.026 mPa·s
373.15 K, 29920 kPa | 1.669 ± 0.028 mPa·s
373.15 K, 29980 kPa | 1.667 ± 0.028 mPa·s
373.15 K, 30000 kPa | 1.667 ± 0.028 mPa·s
373.15 K, 50030 kPa | 1.976 ± 0.033 mPa·s [middle of 4 runs]
373.15 K, 65350 kPa | 2.231 ± 0.037 mPa·s and 2.229 ± 0.037 mPa·s
